Results: patent publication US4596710A, “Gallium chloride as a new anti-cancerous drug” (priority 1981, dated 1986)

How the values were obtained:
adenocarcinoma = test: Long-term treatment of two bitches with evolutive third recurrence of mammary tumour; type: in vivo, female dogs
[1] = Clinical and biological tolerance in patients
Description: Mrs. […] Post-operative chemotherapy (5-fluoro-uracil and endoxan) was then effected up to April 1979. At that time, […] underwent a second operation with excision of the remaining cervix and omentectomy. […] Cobalt therapy was then carried out from Nov. 5th, 1979 to Feb. 5th, 1980 on the abdomen, pelvis and diaphragm cupolas, then further chemotherapy (hexamethylmelamine) from August to October 1980. […] Treatment by gallium chloride started on Nov. 1 st, 1980 at the posology of 300 mg per day per os in three doses of 100 mg. […] An echotomograph on Dec. […] A third echotomograph was made on Jan. […] On Mar.
The treatment by gallium chloride was started on May 15th, 1981, at the posology of 600 mg/24 hours up to Sept. 20th, 1981, in association with a heparinotherapy at mini-doses. This heparinotherapy had been prescribed to prevent a phlebitis or pulmonary embolism following the surgical operation of April 1981 and had not been interrupted in order not to provoke the phenomenon of tumoral flare-up. [Calciparin (heparin calcium salt) 0.2 ml, 3 times per day by sub-cutaneous route]. […] On Sept. […] This was the case. . . […] 29th, 1981. […] Up to Nov. […] It was from Sept.
HOT... […] , was operated on May 14th, 1981 for an adenocarcinoma of the colon. […] An almost total colectomy was carried out, leaving 20 cm of sigmoid and a resection of the small bowel over a length of 15 cm. […] On Oct. […] An exploratory laparotomy was made on Nov. […] 7th, 1982.
Gallium chloride therapy was started on Sept.

globular Mg = test: Globular Mg rates in patients in the course of treatment; type: in vivo, human
Text: The importance of checking the globular Mg rates was furthermore clearly illustrated by the following two observations (3rd and 4th patients).
On Sept. […] This was the case. . . […] 29th, 1981. This posology was tolerated up to Nov. […] Up to Nov. […] It was from Sept.
A person . . . […] On Oct. […] An exploratory laparotomy was made on Nov. […] 7th, 1982.
FIGS. 1, 2 and 3 show the curves of the globular Mg (1) and plasmatic Mg (2) rates as a function of time in the course of treatment by gallium chloride (the starting point of the curves corresponding to the first administration) of the three patients. A person […] (1st patient, […] (3rd Patient) and a person […] (4th patient, respectively.
To follow the globular Mg rates, the dosages must be frequent and repeated, about once a week. In fact, there are cyclic variations of the globular Mg rates with a curve of sinusoidal appearance, and the period of these cycles, like the importance of the globular Mg rates, are a function of the evolutive potential of the malignant tumour (P. COLLERY et col. "Role of Magnesium in the Development of Cancer", Trace Substances in Environmental Health, XII, 1978--A Symposium--University of Missouri--Columbia). The appearance of this curve is modified, as indicated above, by the anti-tumoral therapy by gallium chloride.

malignant melanoma = test: 3rd patient: gallium chloride treatment, tumour response; type: in vivo, human
Text: On Sept. […] This was the case. . . […] Up to Nov. […] It was from Sept.

[2] = system: mammary cancer (tubulo-pillaryadenocarcinoma or mixed-type tumour); test: Gallium chloride therapy in bitches with mammary cancer (primary tumour or recurrence); type: in vivo, female dogs
Description: The anti-tumoral effect of gallium chloride was firstly studied in female dogs having spontaneous malignant tumours of the breast. Gallium chloride therapy was carried out in bitches having a mammary cancer (tubulo-pillaryadenocarcinoma or mixed-type tumour); treatment started either at the stage of the primary tumour (4 bitches) or upon a recurrence after a surgical excision (10 bitches).
(1) In the 4 bitches treated at the primary tumour stage, the following was observed:
In two cases, the treatment was continued for two months, the tumour reducing from 10×7 cm to 8.5×7 cm in one case and from 1.5×1.3 to 1.5×1.0 cm in the other case.
In the third case, the treatment could be continued for more than six months in a very old bitch of 14 years.
(2) In the 10 bitches treated at the recurrence stage, the following was observed: […]

[3] = 800 mg/24 hours oral, one month

## [Cl][Ga]([Cl])[Cl] [gallium chloride]
adenocarcinoma; 2.5 mg/kg per os from 27.2.1981, 1.2 cm on 2.27.1981
  size of the tumour, second bitch (BEL), 4.1.1981: 1.8 cm in diameter
adenocarcinoma; 2.5 mg/kg per os to 30.4.1981
  size of the tumour, second bitch (BEL), 4.30.1981: 2.3 cm in diameter
adenocarcinoma; 10 mg/kg per os, up to Dec. 28th, 1981
  tumour evolution after 10.14.1981, first bitch (OUD): tumoral stabilisation
adenocarcinoma; 5.1.1982
  pulmonary radiograph, second bitch (BEL): normal
adenocarcinoma; Dec. 28th, 1981, good general state during preceding days
  death, first bitch (OUD): suddenly died (good general state during the preceding days) of a myocardial infarction with acute oedema of the lung and overall heart failure
adenocarcinoma; after death Dec. 28th, 1981
  autopsy, first bitch (OUD): no hepatic nor pulmonary metastases a small nodule of 1 cm in the spleen
adenocarcinoma; per os
  tumour growth after 9.1.1981, second bitch (BEL): the growth clearly slowed down with an obvious change in the consistency of the tumour
adenocarcinoma; up to surgical excision
  tumour growth since Nov. 3rd, 1981, second bitch (BEL): virtually not enlarged since Nov. 3rd, 1981
adenocarcinoma; upon opening of excised tumour
  excised piece, second bitch (BEL): considerable necrosis occupying virtually all the tumour
[1]; 300 mg per day per os, two months uninterrupted
  clinical and biological tolerance, 1st patient: good
[1]; [3]
  renal, hepatic, blood cells count disturbance, 5th patient: no renal nor hepatic disturbance nor disturbances in the blood cells count
  tolerance, 5th patient: tolerated perfectly well, both from the clinical and biological point of view
[1]; 800 mg/24 hours, from Nov. 27th, 1981
  anorexia leading to stop of therapy, 3rd patient: virtually total anorexia
[1]; 500 then 300 mg/24 hours oral, without renal disorders
  tolerance, 4th patient: perfect clinically and biologically (without renal disorders in particular)
[1]; Jan. 6th, 1982
  blood cells count, hepatic balance, calcemia, phosphatemia, 2nd patient: normal
  general state, 2nd patient: good, with a normal appetite
  inflammatory balance (haptoglobin), 2nd patient: normal
[1]; Jan. 6th, 1982, normal
  creatinine, 2nd patient: 88.50 µmol/L
[1]; Jan. 6th, 1982, oral since May 20th, 1981
  tolerance, 2nd patient: perfectly well tolerated, without any digestive disorders or neurological, cardiac or cutaneous effects
[1]; Jan. 6th, 1982, unchanged since beginning of treatment
  weight, 2nd patient: 71 kg
[1]; Sept. 29th to Nov. 27th, 1981
  tolerance of 800 mg/24 hours, 3rd patient: tolerated up to Nov. 27th, 1981
[1]; after Mar. 20th, 1981
  digestive intolerance leading to interruption, 1st patient: had to be interrupted due to digestive intolerance
[1]; up to Nov. 27th, 1981
  renal function and blood cells count, 3rd patient: normal
[1]; up to Sept. 20th, 1981, 600 mg/24 hours with Calciparin, stable
  weight, 3rd patient: 70 kg
Globular Mg; 300 mg/24 hours oral
  globular magnesium rates, 4th patient, Oct. 15th, 1981: 3.00 mmol/L
Globular Mg; 800 mg/24 hours, after heparinotherapy stopped
  globular magnesium rates, 3rd patient, Oct. 6th, 1981: 2.96 mmol/L
Globular Mg; 1st, 3rd and 4th patients, when treatment is efficacious
  globular magnesium rates, curves of FIGS. 1-3: decrease
Globular Mg; 500 then 300 mg/24 hours oral
  globular Mg rates, first 4 months, 4th patient: normal
Globular Mg; human, in vivo
  correlation between clinical state, carcinoembryonic antigen and globular magnesium rates, 4th patient: could be emphasized
Malignant melanoma; 600 mg/24 hours with Calciparin
  general state up to Sept. 20th, 1981, 3rd patient: satisfactory, with a good appetite
Malignant melanoma; gallium chloride increased to 800 mg/24 hours from Sept. 29th, 1981
  general state / metastases after Calciparin interruption, 3rd patient: general state rapidly worsened, with appearance of a metastatic hepatomegaly of which the volume increased rapidly
[2]; 5 mg/kg, if duration of treatment extended
  results in mammary tumours in the bitch: good results
[2]; 5 mg/kg, tumour becomes very hard
  regression of the tumour, overall: Regression of the tumour remains weak
[2]; 4 bitches treated at primary tumour stage
  regression of the tumour (primary tumour stage): a regression of the tumour in the other three cases
[2]; 4 bitches treated at primary tumour stage, 1 to 5 mg/kg oral
  death (primary tumour stage): one death on the 7th day
[2]; 10 bitches at recurrence stage, recurrent tumour smaller than 0.6 cm at beginning, two months of treatment
  complete remission: three complete remissions after two months of treatment
[2]; 10 bitches at recurrence stage, three months of treatment
  partial regression of the tumour: in 5 bitches, a partial regression of the tumour with hardening thereof
[2]; 10 bitches treated at recurrence stage
  death (recurrence stage): one death in the third week of treatment, due to a pulmonary metastasis
[2]; recurrence stage
  biopsies / histology at the end of the treatment: tumoral cells persisted, but a histological study suggested an increase in the amorphous ground substance with a cellular rarefaction
[2]; recurrence stage, 1 mg/kg one month, 2.5 mg/kg fifteen days, 5 mg/kg last fifteen days
  tumour growth in one bitch: persistent growth of the tumour in one bitch
[2]; therapeutic strategy with surgical treatment after gallium chloride
  survival: seven out of eight bitches are alive
[2]; third case, bitch of 14 years, 2.5 mg/kg, then 1 mg/kg
  tumour response after resumption of the treatment: regressed after resumption of the treatment
[2]; third case, bitch of 14 years, 5 mg/kg, tumour 3.6×2 cm, doubled in four months preceding treatment
  tumour development during first two months of treatment: did not develop
